US10669269B2, “Substituted N-(1H-indazol-4-yl)imidazo[1,2-a]pyridine-3-carboxamide compounds as type III receptor tyrosine kinase inhibitors” (ARRAY BIOPHARMA INC., priority 2010, dated 2020)
Counter-ions that a name gives are not always drawn.

Columns and labels:
c-KIT = target: T1, c-KIT (Homo sapiens, UniProt P10721); test: c-KIT Cell-Based Assay (Example D); settings: averaged IC50; phospho-c-KIT in M-07e cells stimulated with 150 ng/ml recombinant human SCF; read-out: cKIT Cell ELISA IC50
T1 construct: M-07e cells (human acute megakaryoblastic leukemia cell line) were serum-starved for 4 hours; endogenous in cells; host or cells: M-07e cells (human acute megakaryoblastic leukemia cell line)
T1 sequence (P10721 26-976): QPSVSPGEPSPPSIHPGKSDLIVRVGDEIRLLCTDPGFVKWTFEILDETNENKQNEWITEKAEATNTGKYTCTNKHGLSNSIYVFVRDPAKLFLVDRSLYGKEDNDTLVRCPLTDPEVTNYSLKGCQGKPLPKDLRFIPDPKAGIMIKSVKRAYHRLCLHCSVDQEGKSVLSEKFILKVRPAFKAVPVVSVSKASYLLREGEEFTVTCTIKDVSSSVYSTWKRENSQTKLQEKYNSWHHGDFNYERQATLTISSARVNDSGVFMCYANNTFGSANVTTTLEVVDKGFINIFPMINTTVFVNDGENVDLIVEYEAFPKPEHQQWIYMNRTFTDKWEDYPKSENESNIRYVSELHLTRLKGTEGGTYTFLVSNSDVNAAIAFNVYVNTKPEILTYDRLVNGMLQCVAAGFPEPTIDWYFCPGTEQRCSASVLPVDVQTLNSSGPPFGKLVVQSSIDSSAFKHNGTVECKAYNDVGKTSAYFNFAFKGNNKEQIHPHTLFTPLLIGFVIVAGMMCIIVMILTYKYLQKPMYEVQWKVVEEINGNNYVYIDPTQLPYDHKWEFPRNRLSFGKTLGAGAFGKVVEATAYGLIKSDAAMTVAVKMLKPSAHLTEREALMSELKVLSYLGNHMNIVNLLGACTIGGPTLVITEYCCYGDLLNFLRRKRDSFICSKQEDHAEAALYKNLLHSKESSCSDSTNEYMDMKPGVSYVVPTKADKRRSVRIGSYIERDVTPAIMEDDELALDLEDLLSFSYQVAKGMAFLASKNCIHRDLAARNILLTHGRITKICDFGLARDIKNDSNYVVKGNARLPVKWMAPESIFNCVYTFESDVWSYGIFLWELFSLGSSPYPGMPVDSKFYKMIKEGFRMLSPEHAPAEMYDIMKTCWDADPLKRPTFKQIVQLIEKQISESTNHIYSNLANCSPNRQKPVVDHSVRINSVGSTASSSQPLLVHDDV
Summary of the method: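 Phospho-c-KIT ELISA readout, calibrated with purified phospho-SCF R, gave IC50 (4-parameter fit, 50% of control). Before lysis, M-07e cells were starved 4 h, exposed 1 h to a 9-point 3-fold series (highest usually 5,000 nM), and stimulated with 150 ng/ml SCF for 4 min.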

PDGFR beta [1] = target: T2, PDGFR beta (Homo sapiens, UniProt P09619); test: Phospho PDGFR LICOR Cell Assay (Example B); type: cell-based; settings: averaged IC50; PDGFR beta phosphorylation in HS27 human fibroblast cell line, PDGF-BB stimulation 10 minutes, normalized to total ERK
T2 construct: endogenous in cells; host or cells: HS27 human fibroblast cell line
T2 sequence (P09619 33-1106): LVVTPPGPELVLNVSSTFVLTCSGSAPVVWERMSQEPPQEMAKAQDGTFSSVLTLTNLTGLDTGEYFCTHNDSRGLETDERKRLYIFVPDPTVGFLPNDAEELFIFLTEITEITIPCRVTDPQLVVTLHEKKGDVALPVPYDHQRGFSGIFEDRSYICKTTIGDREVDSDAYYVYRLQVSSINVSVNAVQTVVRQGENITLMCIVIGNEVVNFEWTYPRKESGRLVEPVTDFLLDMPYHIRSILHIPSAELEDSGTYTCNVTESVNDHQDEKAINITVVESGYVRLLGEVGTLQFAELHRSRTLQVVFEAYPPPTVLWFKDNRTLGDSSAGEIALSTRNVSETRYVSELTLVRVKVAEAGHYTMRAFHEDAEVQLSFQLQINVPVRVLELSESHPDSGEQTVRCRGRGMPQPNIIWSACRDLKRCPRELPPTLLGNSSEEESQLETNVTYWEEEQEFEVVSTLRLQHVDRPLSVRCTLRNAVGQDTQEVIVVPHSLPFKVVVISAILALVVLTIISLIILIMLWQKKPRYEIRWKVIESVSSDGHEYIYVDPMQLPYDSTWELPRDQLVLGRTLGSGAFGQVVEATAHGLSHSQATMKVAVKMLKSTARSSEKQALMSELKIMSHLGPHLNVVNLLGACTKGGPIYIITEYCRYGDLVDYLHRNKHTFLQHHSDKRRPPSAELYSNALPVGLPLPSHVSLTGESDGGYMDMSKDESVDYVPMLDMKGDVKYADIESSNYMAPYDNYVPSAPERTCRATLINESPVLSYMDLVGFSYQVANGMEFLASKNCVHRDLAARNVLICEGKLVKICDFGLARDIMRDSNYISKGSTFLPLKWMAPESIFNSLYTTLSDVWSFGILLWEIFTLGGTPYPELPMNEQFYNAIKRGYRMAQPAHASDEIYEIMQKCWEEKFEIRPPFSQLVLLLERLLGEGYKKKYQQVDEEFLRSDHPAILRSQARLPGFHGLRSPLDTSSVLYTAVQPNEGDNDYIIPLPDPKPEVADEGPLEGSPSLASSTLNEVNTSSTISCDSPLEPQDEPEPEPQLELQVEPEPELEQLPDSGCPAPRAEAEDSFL
Summary of the method: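 Read-out is in-cell phospho-PDGFRβ/total-ERK infrared immunofluorescence in HS27 fibroblasts. Cells got 1 h compound exposure before a 10 min PDGF-BB challenge. A 4-parameter logistic fit gave IC50 as the concentration yielding 50 percent of control.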

cFMS = target: T3, cFMS (Homo sapiens, UniProt P07333); test: cFMS Cell-Based Assay (Example C); settings: averaged IC50; phospho-cFMS in THP-1 cells stimulated with 250 ng/mL recombinant human MCSF; read-out: cFMS Cell ELISA IC50
T3 construct: THP-1 cells (human acute monocytic leukemia cell line) were serum-starved for 4 hours; endogenous in cells; host or cells: THP-1 cells (human acute monocytic leukemia cell line)
T3 sequence (P07333 20-972): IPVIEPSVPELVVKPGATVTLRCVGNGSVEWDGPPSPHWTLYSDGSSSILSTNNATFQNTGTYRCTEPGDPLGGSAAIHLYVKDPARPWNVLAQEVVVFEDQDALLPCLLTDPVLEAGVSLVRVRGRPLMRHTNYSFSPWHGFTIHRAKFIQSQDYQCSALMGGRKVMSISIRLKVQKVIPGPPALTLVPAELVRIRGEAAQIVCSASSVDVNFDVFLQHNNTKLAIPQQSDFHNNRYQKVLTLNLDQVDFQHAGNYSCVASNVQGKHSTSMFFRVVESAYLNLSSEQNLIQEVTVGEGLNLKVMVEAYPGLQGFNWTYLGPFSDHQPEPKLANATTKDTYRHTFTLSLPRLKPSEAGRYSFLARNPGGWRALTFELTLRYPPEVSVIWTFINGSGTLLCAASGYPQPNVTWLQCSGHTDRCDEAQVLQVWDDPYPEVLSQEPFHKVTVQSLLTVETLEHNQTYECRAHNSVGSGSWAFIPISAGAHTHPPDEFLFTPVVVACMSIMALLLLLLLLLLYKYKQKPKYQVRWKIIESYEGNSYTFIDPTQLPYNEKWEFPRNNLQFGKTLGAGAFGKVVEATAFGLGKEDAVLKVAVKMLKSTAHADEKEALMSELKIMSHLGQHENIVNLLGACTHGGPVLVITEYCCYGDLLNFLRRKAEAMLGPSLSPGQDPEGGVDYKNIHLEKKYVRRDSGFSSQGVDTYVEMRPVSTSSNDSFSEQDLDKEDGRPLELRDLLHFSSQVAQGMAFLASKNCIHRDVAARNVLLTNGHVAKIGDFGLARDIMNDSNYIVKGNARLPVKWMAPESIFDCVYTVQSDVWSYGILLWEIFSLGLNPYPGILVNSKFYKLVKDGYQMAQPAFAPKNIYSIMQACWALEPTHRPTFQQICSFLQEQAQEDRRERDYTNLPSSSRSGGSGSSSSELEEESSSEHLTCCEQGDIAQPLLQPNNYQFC
Summary of the method: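 Phosphotyrosine on cFMS, captured from lysates and quantified by ELISA, reads receptor activation after 1 min of 250 ng/mL human MCSF. Beforehand, THP-1 cells were serum-starved for 4 h and exposed to compound for 1 h (9 points, 3-fold, typically up to 5,000 nM). IC50 from a 4-parameter logistic fit as 50 percent of control.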

PDGFR beta [2] = target: T2, PDGFR beta; test: Phospho PDGFR Cell Assay, sandwich ELISA (Example A); type: cell-based; settings: averaged IC50, PDGFR beta phosphorylation in HS27 human fibroblast cell line, PDGF-BB stimulation 5 minutes
Summary of the method: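 HS27 human fibroblasts were pretreated with compound for 1 h, stimulated with PDGF-BB for 5 min, then lysed. Phospho-PDGFR beta was measured by sandwich ELISA, and IC50 was taken as the concentration giving 50 percent of control from a 4-parameter logistic fit.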

| Compound | IC50 (c-KIT) [nM] | IC50 (PDGFR beta [1]) [nM] | IC50 (cFMS) [nM] | IC50 (PDGFR beta [2]) [nM] |
| --- | --- | --- | --- | --- |
| Cc1nn(Cc2cccc(C3CC3)n2)c2cccc(NC(=O)c3cnc4cc(OCCN5CCOCC5)ccn34)c12 [Example 18, N-(1-((6-cyclopropylpyridin-2-yl)methyl)-3-methyl-1H-indazol-4-yl)-7-(2-morpholinoethoxy)imidazo[1,2-a]pyridine-3-carboxamide] | 81.8 | 674 | 10.2 | 59.9 |
| Cc1nn(Cc2cccc(C(C)C)n2)c2cccc(NC(=O)c3cnc4cc(OCCN5CCN(C)[C@@H](C)C5)ccn34)c12 [Example 25, (S)-7-(2-(3,4-dimethylpiperazin-1-yl)ethoxy)-N-(1-((6-isopropylpyridin-2-yl)methyl)-3-methyl-1H-indazol-4-yl)imidazo[1,2-a]pyridine-3-carboxamide] | 51.4 | 18 | 23.8 | 41.8 |
| Cc1nn(Cc2ccc(C(F)(F)F)cn2)c2cccc(NC(=O)c3cnc4cc(OCCN5CCN(C(C)C)CC5)ccn34)c12 [Example 44, 7-(2-(4-isopropylpiperazazin-1-yl)ethoxy)-N-(3-methyl-1-((5-(trifluoromethyl)pyridin-2-yl)methyl)-1H-indazol-4-yl)imidazo[1,2-a]pyridine-3-carboxamide] | 63.4 | 794 | 22.7 | 116 |
| Cc1nn(Cc2cccc(C(F)(F)F)n2)c2cccc(NC(=O)c3cnc4cc(OCCN5CCN(C(C)C)CC5)ccn34)c12 [Example 45, 7-(2-(4-isopropylpiperazin-1-yl)ethoxy)-N-(3-methyl-1-((6-(trifluoromethyl)pyridin-2-yl)methyl)-1H-indazol-4-yl)imidazo[1,2-a]pyridine-3-carboxamide] | 166 | 113 | 13.4 | 347 |
| Cc1nn(Cc2cccc(C(C)C)n2)c2cccc(NC(=O)c3cnc4cc(OCCN5CCN(C)CC5)ccn34)c12 [Example 66, N-(1-((6-isopropylpyridin-2-yl)methyl)-3-methyl-1H-indazol-4-yl)-7-(2-(4-methylpiperazin-1-yl)ethoxy)imidazo[1,2-a]pyridine-3-carboxamide] | 30.7 | 4.8 | 10.2 | 18.3 |
| O=C(Nc1cccc2c1cnn2Cc1ccccc1)c1cnc2cc(OCC(O)CO)ccn12 (centres unmarked) [Example 91, N-(1-benzyl-1H-indazol-4-yl)-7-(2,3-dihydroxypropoxy)imidazo[1,2-a]pyridine-3-carboxamide] | 30.1 | 10.9 | 4.4 | 22.2 |

Further lines, results first:

| IC50 (c-KIT) [nM] | IC50 (PDGFR beta [1]) [nM] | IC50 (cFMS) [nM] | IC50 (PDGFR beta [2]) [nM] | Compound |
| --- | --- | --- | --- | --- |
| 39.1 | 247 | 9.4 | 43.2 | Cc1nn(Cc2cccc(C3CC3)n2)c2cccc(NC(=O)c3cnc4cc(OCCN5CCN(C)C(C)(C)C5)ccn34)c12 [Example 19, N-(1-((6-cyclopropylpyridin-2-yl)methyl)-3-methyl-1H-indazol-4-yl)-7-(2-(3,3,4-trimethylpiperazin-1-yl)ethoxy)imidazo[1,2-a]pyridine-3-carboxamide] |
| 27.9 | 63.2 | 13.7 | 29.6 | Cc1nn(Cc2cccc(C3CC3)n2)c2cccc(NC(=O)c3cnc4cc(OCCN5CCN(C)[C@@H](C)C5)ccn34)c12 [Example 26, (S)—N-(1-((6-cyclopropylpyridin-2-yl)methyl)-3-methyl-1H-indazol-4-yl)-7-(2-(3,4-dimethylpiperazin-1-yl)ethoxy)imidazo[1,2-a]pyridine-3-carboxamide dihydrochloride] |
| 36.2 | 72.6 | 13.8 | 69.5 | Cc1nn(Cc2cccc(C3CC3)n2)c2cccc(NC(=O)c3cnc4cc(OCCN5CCN(C)[C@H](C)C5)ccn34)c12 [Example 27, (R)—N-(1-((6-cyclopropylpyridin-2-yl)methyl)-3-methyl-1H-indazol-4-yl)-7-(2-(3,4-dimethylpiperazin-1-yl)ethoxy)imidazo[1,2-a]pyridine-3-carboxamide dihydrochloride] |
| 35.5 | 9.9 | 14 | 5.9 | Cc1nn(Cc2cccc(C(C)C)n2)c2cccc(NC(=O)c3cnc4cc(OCCN5CCN(C)[C@H](C)C5)ccn34)c12 [Example 28, (R)-7-(2-(3,4-dimethylpiperazin-1-yl)ethoxy)-N-(1-((6-isopropylpyridin-2-yl)methyl)-3-methyl-1H-indazol-4-yl)imidazo[1,2-a]pyridine-3-carboxamide] |
| 48.5 | 6.5 | 15.9 | 74.9 | Cc1nn(Cc2cccc(C3CC3)n2)c2cccc(NC(=O)c3cnc4cc(OCCN5CCN(C)CC5)ccn34)c12 [Example 47, N-(1-((6-cyclopropylpyridin-2-yl)methyl)-3-methyl-1H-indazol-4-yl)-7-(2-(4-methylpiperazin-1-yl)ethoxy)imidazo[1,2-a]pyridine-3-carboxamide] |
